Measurements published in patent US20240124432A1, “HERBICIDAL COMPOUNDS” (SYNGENTA CROP PROTECTION AG, priority 2020, published 2024).

Assays:
Format in all cases: in vivo
LOLPE [1] = test: Post-emergence biological efficacy; conditions: Lolium perenne, 312 h, evaluated after 13 days, read-out: damage to plant (100=total damage to plant; 0=no damage to plant)
Procedure, shortened: (§1)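 Plants grown 14 days in glasshouse, then sprayed post-emergence with compound formulated in IF50 and diluted in 0.2% Genapol XO80 to the desired dose. Damage scored after 13 days on a 0–100 scale (100 = total damage).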

ELEIN = test: Post-emergence biological efficacy; conditions: 312 h, evaluated after 13 days, read-out: damage to plant (100=total damage to plant; 0=no damage to plant)
Procedure, shortened: as §1

IPOHE [2] = test: Post-emergence biological efficacy; conditions: Ipomoea hederacea, 312 h, evaluated after 13 days, read-out: damage to plant (100=total damage to plant; 0=no damage to plant)
Procedure, shortened: as §1

CHEAL = test: Post-emergence biological efficacy; conditions: Chenopodium album, 312 h, evaluated after 13 days, read-out: damage to plant (100=total damage to plant; 0=no damage to plant)
Procedure, shortened: as §1

SETFA [3] = test: Post-emergence biological efficacy; conditions: Setaria faberi, 312 h, evaluated after 13 days, read-out: damage to plant (100=total damage to plant; 0=no damage to plant)
Procedure, shortened: as §1

EPHHL [4] = test: Post-emergence biological efficacy; conditions: Euphorbia heterophylla, 312 h, evaluated after 13 days, read-out: damage to plant (100=total damage to plant; 0=no damage to plant)
Procedure, shortened: as §1

AMAPA [5] = test: Post-emergence biological efficacy; conditions: Amaranthus palmeri, 312 h, evaluated after 13 days, read-out: damage to plant (100=total damage to plant; 0=no damage to plant)
Procedure, shortened: as §1

DIGSA = test: Post-emergence biological efficacy; conditions: Digitaria sanguinalis, 312 h, evaluated after 13 days, read-out: damage to plant (100=total damage to plant; 0=no damage to plant)
Procedure, shortened: as §1

ECHCG [6] = test: Post-emergence biological efficacy; conditions: Echinochloa crus-galli, 312 h, evaluated after 13 days, read-out: damage to plant (100=total damage to plant; 0=no damage to plant)
Procedure, shortened: as §1

LOLPE [7] = test: Pre-emergence biological efficacy; conditions: Lolium perenne, 312 h, evaluated after 13 days, read-out: damage to plant (100=total damage to plant; 0=no damage to plant)
Procedure, shortened: (§2)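 Sow in pots → 1 d glasshouse, 24/19 °C, 16 h light → spray compound (IF50/acetone formulation, 0.2% Genapol XO80 diluent) → grow 24/18 °C, 15 h light, 50% RH, water 2×/day → score damage 0–100 at 13 d.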

IPOHE [8] = test: Pre-emergence biological efficacy; conditions: Ipomoea hederacea, 312 h, evaluated after 13 days, read-out: damage to plant (100=total damage to plant; 0=no damage to plant)
Procedure, shortened: as §2

SETFA [9] = test: Pre-emergence biological efficacy; conditions: Setaria faberi, 312 h, evaluated after 13 days, read-out: damage to plant (100=total damage to plant; 0=no damage to plant)
Procedure, shortened: as §2

EPHHL [10] = test: Pre-emergence biological efficacy; conditions: Euphorbia heterophylla, 312 h, evaluated after 13 days, read-out: damage to plant (100=total damage to plant; 0=no damage to plant)
Procedure, shortened: as §2

AMAPA [11] = test: Pre-emergence biological efficacy; conditions: Amaranthus palmeri, 312 h, evaluated after 13 days, read-out: damage to plant (100=total damage to plant; 0=no damage to plant)
Procedure, shortened: as §2

ECHCG [12] = test: Pre-emergence biological efficacy; conditions: Echinochloa crus-galli, 312 h, evaluated after 13 days, read-out: damage to plant (100=total damage to plant; 0=no damage to plant)
Procedure, shortened: as §2

Row | SMILES | pest or weed control at 250 g/ha (LOLPE [1]) [%] | pest or weed control at 250 g/ha (ELEIN) [%] | pest or weed control at 250 g/ha (IPOHE [2]) [%] | pest or weed control at 250 g/ha (CHEAL) [%] | pest or weed control at 250 g/ha (SETFA [3]) [%] | pest or weed control at 250 g/ha (EPHHL [4]) [%] | pest or weed control at 250 g/ha (AMAPA [5]) [%] | pest or weed control at 250 g/ha (DIGSA) [%] | pest or weed control at 250 g/ha (ECHCG [6]) [%] | pest or weed control at 250 g/ha (LOLPE [7]) [%] | pest or weed control at 250 g/ha (IPOHE [8]) [%] | pest or weed control at 250 g/ha (SETFA [9]) [%] | pest or weed control at 250 g/ha (EPHHL [10]) [%] | pest or weed control at 250 g/ha (AMAPA [11]) [%] | pest or weed control at 250 g/ha (ECHCG [12]) [%]
1 | CCOC(=O)C1(C)CC(c2cc(-c3cc(C(F)(F)F)ccn3)c(F)cc2Cl)=NO1 (stereo not drawn) [Compound 1-319, Ethyl 3-[2-chloro-4-fluoro-5-[4-(trifluoromethyl)-2-pyridyl]-phenyl]-5-methyl-4H-isoxazole-5-carboxylate] | 10 | 40 | 100 | 90 | 70 | 80 | 80 | 80 | 60 | 10 | 0 | 0 | 20 | 40 | 30
2 | CCOC(=O)C1(C)CC(c2cc(-c3ncc(F)cc3Cl)c(F)cc2Cl)=NO1 (stereo not drawn) [Compound 1-331, Ethyl 3-[2-chloro-5-(3-chloro-5-fluoro-2-pyridyl)-4-fluoro-phenyl]-5-methyl-4H-isoxazole-5-carboxylate] | 100 | 100 | 100 | 100 | 100 | 100 | 100 | 100 | 100 | 80 | 60 | 100 | 100 | 100 | 90
3 | CCOC(=O)C1(C)CC(c2cc(-c3ncc(Cl)cc3C(F)(F)F)c(F)cc2Cl)=NO1 (stereo not drawn) [Compound 1-343, Ethyl 3-[2-chloro-5-[5-chloro-3-(trifluoromethyl)-2-pyridyl]-4-fluoro-phenyl]-5-methyl-4H-isoxazole-5-carboxylate] | 60 | 100 | 100 | 100 | 100 | 100 | 100 | 100 | 80 | 20 | 60 | 50 | 50 | 70 | 30
4 | CCOC(=O)C1(C)CC(c2cc(-c3ncc([N+](=O)[O-])cc3Cl)c(F)cc2Cl)=NO1 (stereo not drawn) [Compound 1-355, Ethyl 3-[2-chloro-5-(3-chloro-5-nitro-2-pyridyl)-4-fluoro-phenyl]-5-methyl-4H-isoxazole-5-carboxylate] | 50 | 50 | 70 | 60 | 40 | 80 | 100 | 50 | 50 | 20 | 20 | 10 | 20 | 0 | 10
5 | CCOC(=O)C1(C)CC(c2cc(-c3cc(C)cc(F)n3)c(F)cc2Cl)=NO1 (stereo not drawn) [Compound 1-367, Ethyl 3-[2-chloro-4-fluoro-5-(6-fluoro-4-methyl-2-pyridyl)-phenyl]-5-methyl-4H-isoxazole-5-carboxylate] | 0 | 20 | 40 | 20 | 40 | 30 | 0 | 50 | 40 | 0 | 0 | 0 | 0 | 0 | 0
6 | CCOC(=O)C1(C)CC(c2cc(-c3cncc(OC)c3)c(F)cc2Cl)=NO1 (stereo not drawn) [Compound 1-379, Ethyl 3-[2-chloro-4-fluoro-5-(5-methoxy-3-pyridyl)-phenyl]-5-methyl-4H-isoxazole-5-carboxylate] | 10 | 40 | 80 | 50 | 40 | 50 | 100 | 60 | 40 | 0 | 0 | 0 | 0 | 0 | 0
7 | CCOC(=O)C1(C)CC(c2cc(-c3cnc(F)c(F)c3)c(F)cc2Cl)=NO1 (stereo not drawn) [Compound 1-391, Ethyl 3-[2-chloro-5-(5,6-difluoro-3-pyridyl)-4-fluoro-phenyl]-5-methyl-4H-isoxazole-5-carboxylate] | 10 | 40 | 40 | 50 | 40 | 50 | 60 | 50 | 40 | 0 | 0 | 0 | 0 | 0 | 0
8 | CCOC(=O)C1(C)CC(c2cc(-c3cnc(F)c(Cl)c3)c(F)cc2Cl)=NO1 (stereo not drawn) [Compound 1-403, Ethyl 3-[2-chloro-5-(5-chloro-6-fluoro-3-pyridyl)-4-fluoro-phenyl]-5-methyl-4H-isoxazole-5-carboxylate] | 20 | 60 | 50 | 70 | 40 | 70 | 70 | 70 | 40 | 20 | 10 | 0 | 20 | 30 | 40
9 | CCOC(=O)C1(C)CC(c2cc(-c3cnc(F)c(OC)c3)c(F)cc2Cl)=NO1 (stereo not drawn) [Compound 1-415, Ethyl 3-[2-chloro-4-fluoro-5-(6-fluoro-5-methoxy-3-pyridyl)-phenyl]-5-methyl-4H-isoxazole-5-carboxylate] | 20 | 70 | 90 | 100 | 90 | 90 | 100 | 40 | 70 | 0 | 0 | 0 | 0 | 0 | 0
10 | CCOC(=O)C1(C)CC(c2cc(-c3cnc(Cl)c(Cl)c3)c(F)cc2Cl)=NO1 (stereo not drawn) [Compound 1-427, Ethyl 3-[2-chloro-5-(5,6-dichloro-3-pyridyl)-4-fluoro-phenyl]-5-methyl-4H-isoxazole-5-carboxylate] | 20 | 60 | 80 | 60 | 100 | 70 | 100 | 40 | 80 | 0 | 0 | 0 | 0 | 0 | 0
